Measurements published in patent publication US6753150B2, “Method for determining whether a compound is capable of inhibiting the interaction of a peptide with rage” (The Trustees of Columbia University in the City of New York, priority 1998, dated 2004).
Each block holds one molecule with its values, some of them ahead of it.

How the values were obtained:
[1] = system: Human umbilical vein endothelial cells (HUVEC); assay: Molt-4 binding assay on stimulated endothelial cells (cell surface VCAM-1 functional activity); format: cell-based; settings: for binding of Molt-4 cells to Ecs: Example 2
Procedure: FIG. 4. Cellular activation studies: endothelial cells. HUVEC were incubated in the presence of the indicated mediators for 6 hrs. Where indicated, certain cells were preincubated with anti-RAGE/preimmune IgG for one hour. Cells were washed and incubated with ^51Cr-Molt-4 cells (bear VLA-4) for 1 hr. Bound radioactivity was eluted in the presence of SDS (1%) and counted in a gamma counter. Results are reported compared with Molt-4 cell binding to cells exposed to native ovalbumin (defined as “1”).
Molt-4 binding assays. Molt-4 binding assays were performed according to the general method of Marui et al (32). Human umbilical vein endothelial cells were stimulated with the indicated compound in the presence or absence of competitors for 6 hrs at 37° C. Molt-4 cells, which express VLA-4, ligand for VCAM-1, (ATCC) were grown in RPMI 1640 containing fetal bovine serum (10%). Radio labelling was accomplished by incubating Molt-4 cells (2×10^7 cells/ml) for 16 hrs at 37° C. in the above medium containing ^51-Cr (0.2 mCi/ml). Before the binding assay, unincorporated radioactivity was removed by washing cells with Hank's balanced salt solution, and then resuspending them in RPMI containing fetal bovine serum (10%) at 4×10^6 cells/ml. Molt-4 cells were incubated with endothelial cells for one hr at 37° C., and nonadherent cells were removed by washing twice with Medium 199 containing fetal bovine serum (1%); adherent cells were solubilized in SDS (1%), and radioactivity counted in a gamma counter.
To test if incubation of CML-ovalbumin or pentosidine-ovalbumin activated EC, specific AGEs were rendered free of endotoxin (Detoxigel columns (PIERCE®)) and tested for absence of endotoxin by limulus amebocyte assay (SIGMA®).

[2] = system: human peripheral blood-derived mononuclear phagocytes; assay: Monocyte chemotaxis assay in modified chemotaxis chambers; format: cell-based; settings: mediator in lower wells, three hrs
Procedure: FIG. 5. Cellular activation studies: mononuclear phagocytes. Human monocytes (5×10^4) were placed in the upper wells of modified chemotaxis chambers with the indicated mediators in the lower wells for three hrs. Membranes were then stained with Giemsa and cells that migrated through the membrane toward the chemotactic stimulus counted per hpf.
Chenotaxis assays. Chemotaxis assays, performed in 48-well microchemotaxis chambers (Neuro-Probe) containing polycarbonate membranes were performed as previously described (15). In these studies, human peripheral blood-derived mononuclear phagocytes, which bear cell surface RAGE, were employed.
Mononuclear phagocytes. To determine if CML-ovalbumin mediated increased human peripheral blood-derived monocyte chemotaxis, experiments were performed in modified chemotaxis chambers as described above.

NF-κB [3] = assay: Electrophoretic mobility shift assay for NF-κB in endothelial cells; format: cell-based, human; settings: for nuclear translocation / activation of NF-κB in HUVEC: 6 hrs, AGEs at 50 μg/ml; for activation of NF-κB in Ecs: Example 2
Procedure: FIG. 6. Electrophoretic mobility shift assay. Human umbilical vein endothelial cells (HUVEC) were incubated with mediators for 6 hrs; nuclear extracts were prepared and electrophoretic mobility shift assays performed with ^32P-labelled probe for NF-κB. Lanes contain mediators as above (all AGEs were added at 50 μg/ml). Lanes contain: lane 1, CML-ovalbumin; lane 2, native ovalbumin; lane 3, pentosidine ovalbumin; lane 4, nonimmune IgG and CML ovalbumin; lane 5, anti-RAGE IgG: 7 μg/ml; lane 6; anti-RAGE IgG: 70 μg/ml; lane 7: CML-ovalbumin/100-fold excess unlabelled NF-κB. Supershift assays (lane 8: anti-p50 IgG; lane 9:anti-p65 IgG; lane 10:both anti-p50 IgG and anti-p65 IgG; lane 11: preimmune IgG), all + CML-ovalbumin. Lane 12:CML-ovalbumin: vector alone/13:tail-deleted RAGE.
Electrophoretic mobility shift assays (EMSA). Nuclear extracts were prepared from HUVECs by the method of Schreiber (33). Protein concentration was determined using the Bradford reagent (BIO-RAD®). Double-stranded oligonucleotides representing a portion of the human VCAM-1 promoter containing an NF-κB site were synthesized (Life Technologies). Oligonucleotides were used as probe as follows: NF-κB: 5′[…]3′ (SEQ ID No. 1). Probes were 5′-end labelled with g-[^32P] ATP and polynucleotide kinase. Each reaction contained 10 fmol of probe and 2-5 microliter (1.5 μg) of nuclear extract. Binding reactions were performed in buffer as previously described (19). Complexes were resolved on nondenaturing polyacrylamide gels (6%) in tris (50 mM), borate (45 mM), and EDTA (0.5 mM), ([…]; final pH 7.5). Samples were subjected to electrophoresis for 2 hrs at 10 V/cm. For supershift assays, complexes were preincubated with anti-p65 IgG, anti-p50 IgG or both together, or nonimmune IgG (7.5 μg/ml; 2 hrs 37° C.) in a total reaction volume of 20 μl.
We tested the ability of CML-ovalbumin to ligate RAGE and activate cell signalling pathways.

sRAGE [4] = molecular target: T1, sRAGE (Homo sapiens, UniProt Q15109); assay: Radioligand binding of 125I-sRAGE to immobilized AGE-modified proteins (dose response); settings: for specific binding to sRAGE/RAGE: immobilized AGE-protein, 125I-sRAGE
T1 construct: full length soluble RAGE (100 nM; specific activity 7,000-8,000 cpm/ng)
T1 sequence (Q15109 23-342 limits assumed): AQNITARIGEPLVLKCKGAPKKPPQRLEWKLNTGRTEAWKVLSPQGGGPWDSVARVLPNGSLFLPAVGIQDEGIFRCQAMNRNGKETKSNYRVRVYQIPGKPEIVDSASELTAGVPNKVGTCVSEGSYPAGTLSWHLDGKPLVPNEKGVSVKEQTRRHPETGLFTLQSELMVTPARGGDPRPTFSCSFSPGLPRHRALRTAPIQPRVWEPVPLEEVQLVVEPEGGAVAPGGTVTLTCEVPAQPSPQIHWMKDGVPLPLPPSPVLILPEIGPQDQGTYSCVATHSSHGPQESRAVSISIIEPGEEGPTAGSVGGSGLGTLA
Procedure: Radioligand binding studies: dose response experiments. CML- or pentosidine BSA (5 μg) was immobilized to plastic wells and radioligand binding assays performed with increasing concentrations of purified ^125-I sRAGE +/− excess unlabelled sRAGE (50-fold molar excess). Bound tracer was eluted with buffer containing NP40 (1%) and NaCl (0.15M) and the data subjected to analysis as described in the Experimental Details section.
Radioligand binding assays. […] All materials were devoid of endotoxin using the Detoxi-gel system (PIERCE®) and tested for negativity in the limulus amebocyte assay (SIGMA®). […] Specific AGE or control protein (5 μg) was loaded onto the wells of a NUNC MAXISORP® dish in sodium bicarbonate/sodium carbonate buffer (pH 9.8) overnight at 4° C. The following morning, wells were aspirated and blocked with phosphate buffered saline (with calcium/magnesium) containing bovine serum albumin (1%) for two hrs at 37° C. Wells were then washed once with phosphate buffered saline (without calcium/magnesium) containing Tween 20 (0.05%); 0.150 ml/well. A radioligand binding assay was then performed in phosphate buffered saline containing 0.2% bovine serum albumin for 2 hrs at 37° C. utilizing radiolabelled (^125I; using Iodogen (Pierce)) full length soluble RAGE (100 nM; specific activity 7,000-8,000 cpm/ng) in the presence or absence of unlabelled soluble RAGE (50×molar excess) or the indicated molar excess of competitor. Wells were then eluted after washing as above with buffer containing NP-40 (1%) and NaCl (0.15M). The material retrieved was then counted in a gamma counter (LKB). In certain experiments, antibodies or excess soluble RAGE were employed as indicated to test their ability to compete in the indicated assays.
Radioligand binding studies. […] Radioligand binding assays were performed in which CML-BSA, pentosidine-BSA or methylglyoxal-human serum albumin was adsorbed to plastic wells. Radioligand binding assays were performed as described and equilibrium binding data was analyzed according to the equation of Klotz and Hunston.

sRAGE [5] = molecular target: T1, sRAGE; assay: Radioligand competition: 125I-sRAGE (100 nM) binding to immobilized CML-BSA with competitors; settings: competitor in excess
Procedure: Radioligand binding studies: competition experiments. CML-BSA was immobilized to wells; binding was performed with ^125-I sRAGE (100 nM) with the indicated competitors. […] Percent maximal binding is reported compared to binding to immobilized CML-BSA without competitor (100%).
Radioligand binding studies: CML-adducts interact with the V-type Ig domain of RAGE. CML-BSA was immobilized to wells; binding was performed with ^125-I sRAGE (100 nM) in the presence or absence of excess unlabelled (100-fold) V-type Ig domain, C1 Ig domain or C2 Ig domain. Percent maximal binding is reported compared to binding to immobilized CML-BSA without competitor (100%).
Radioligand binding assays. […] All materials were devoid of endotoxin using the Detoxi-gel system (PIERCE®) and tested for negativity in the limulus amebocyte assay (SIGMA®). Gas chromatography-mass spectroscopy and HPLC analyses were performed and verified the identity of the prepared AGES. Specific AGE or control protein (5 μg) was loaded onto the wells of a NUNC MAXISORP® dish in sodium bicarbonate/sodium carbonate buffer (pH 9.8) overnight at 4° C. […] The material retrieved was then counted in a gamma counter (LKB). […]
Radioligand binding studies. […] Radioligand binding assays were performed as described and equilibrium binding data was analyzed according to the equation of Klotz and Hunston.

RAGE = RAGE (Homo sapiens, UniProt Q15109); assay: Binding of CML-modified proteins to immobilized RAGE (Example 2); settings: for Kd: dose-dependent and saturable
RAGE, sequence (Q15109 23-404): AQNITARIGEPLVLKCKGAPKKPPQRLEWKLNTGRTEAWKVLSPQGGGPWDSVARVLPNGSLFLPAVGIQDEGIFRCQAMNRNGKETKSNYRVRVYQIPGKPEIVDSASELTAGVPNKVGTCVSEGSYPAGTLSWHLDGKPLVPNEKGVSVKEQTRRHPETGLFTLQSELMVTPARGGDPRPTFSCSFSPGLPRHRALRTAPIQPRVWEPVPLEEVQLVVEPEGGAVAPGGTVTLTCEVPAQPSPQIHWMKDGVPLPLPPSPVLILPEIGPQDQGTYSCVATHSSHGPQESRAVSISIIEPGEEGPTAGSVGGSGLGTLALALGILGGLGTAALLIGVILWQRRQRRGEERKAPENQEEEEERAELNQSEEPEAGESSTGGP
Excerpt: (§1) Advanced glycation endproducts (AGEs) are heterogeneous compounds that form in hyperglycemia, highly-oxidized environments and renal failure. AGEs accumulate in the plasma and tissues of patients with diabetes; their presence has been linked to the development of medical complications. Interaction of AGEs with Receptor for AGE ([…]) activates cells such as endothelial cells (Ecs) and monocytes (Mps) in a manner favoring the development of vascular/inflammatory cell complications. AGEs consist of structures such as carboxymethyl-lysine and pentosidine (both free and protein-bound forms). To begin to delineate which AGE forms interact with RAGE, we prepared free CML and pentosidine, as well as CML- and pentosidine bovine serum albumin (BSA) and ovalbumin (OVA).

NF-κB [6] = assay: NF-κB activation in monocytes (MPs) (Example 2); format: cell-based
Excerpt: as §1

VCAM-1 = assay: Infusion into normal mice, Northern analysis of VCAM-1 mRNA in lung; format: in vivo; settings: 100 μg infused into CD1 mice, six hrs, Northern blot
Procedure: FIG. 7. In vivo studies: infusion of CML-BSA into mice modulates […] expression. CML-BSA (lane 2) or native BSA (lane 1) (both 100 μg) was infused into normal CD1 mice. LPS (100 μg) was infused as positive control (lane 3). Six hrs later, mice were humanely sacrificed and lungs rapidly removed for preparation of RNA. Northern analysis was performed as described above for VCAM-1; membranes were then stripped and reprobed with ^32-P-labelled cDNA for G3PDH.
Northern blot analysis. Northern blot analysis for VCAM-1 and G3PDH were performed as previously described (19).
Infusion of CML-BSA into normal mice increases mRNA for Vascular Cell Adhesion Molecule-1.

Molecule: native ovalbumin: unmodified ovalbumin control protein
effect on binding of 51Cr-Molt 4 cells to HUVEC ([1]; HUVEC exposed 6 hrs): without effect | monocyte chemotaxis [2]: without effect | nuclear translocation / activation of NF-κB in HUVEC (NF-κB [3]): not

Molecule: N[C@@H](CCCCNCC(=O)O)C(=O)O [free CML, N^e-(Carboxymethyl)lysine]
specific binding to sRAGE/RAGE (sRAGE [4]): not | effect on binding of 125I-sRAGE to immobilized CML-BSA (sRAGE [5]): no effect | effect on binding of CML-BSA and CML-OVA to immobilized RAGE (RAGE): not

Molecule: N[C@@H](CCCCn1cccc2nc(NCCC[C@H](N)C(=O)O)nc1-2)C(=O)O [free pentosidine, Pentosidine]
effect on binding of 125I-sRAGE to immobilized CML-BSA (sRAGE [5]): no effect | effect on binding of CML-BSA and CML-OVA to immobilized RAGE (RAGE): not

Molecule: CML-ovalbumin: carboxymethyl-lysine-modified ovalbumin, a synthetic AGE
binding of Molt-4 cells to Ecs [1]: increased binding of Molt-4 cells | increase in binding of 51Cr-Molt 4 cells to HUVEC ([1]; HUVEC exposed 6 hrs, relative to native ovalbumin (defined as 1)): 2.3 fold | monocyte chemotaxis [2]: stimulated monocyte chemotaxis in a dose-dependent manner | nuclear translocation / activation of NF-κB in HUVEC (NF-κB [3]): increased nuclear translocation of NF-κB | activation of NF-κB in Ecs (NF-κB [3]): activated NF-κB | activation of NF-κB in MPs (NF-κB [6]): activated NF-κB

Molecule: pentosidine-ovalbumin: pentosidine-modified ovalbumin
effect on binding of 51Cr-Molt 4 cells to HUVEC ([1]; HUVEC exposed 6 hrs): without effect | nuclear translocation / activation of NF-κB in HUVEC (NF-κB [3]): not

Continued, in another order:

specific binding to sRAGE/RAGE (sRAGE [4]): no specific binding
Molecule: pentosidine-BSA: pentosidine-modified bovine serum albumin
binding of Molt-4 cells to Ecs [1]: without effect | monocyte chemotaxis [2]: without effect | activation of NF-κB in Ecs (NF-κB [3]): without effect | activation of NF-κB in MPs (NF-κB [6]): without effect

effect on binding of CML-BSA and CML-OVA to immobilized RAGE (RAGE): not
Molecule: unmodified BSA: unmodified bovine serum albumin control protein
mRNA for VCAM-1 in lung tissue (VCAM-1): without effect

Kd (sRAGE [4]; read-out: KD of binding to sRAGE, AGE-protein (5 μg) immobilized on wells, increasing 125I-sRAGE +/- 50-fold excess unlabelled sRAGE): ~76 nM | Kd (RAGE): 60 nM
Molecule: CML-BSA: carboxymethyl-lysine-modified bovine serum albumin, a synthetic AGE
mRNA for VCAM-1 in lung tissue (VCAM-1): increased mRNA for VCAM-1 | activation of NF-κB in MPs (NF-κB [6]): activated NF-κB

Kd (RAGE): 60 nM
B1: CML-ovalbumin: carboxymethyl-lysine-modified ovalbumin, a synthetic AGE (protein, UniProt P01012 2-386, looked up)
Ovalbumin: GSIGAASMEFCFDVFKELKVHHANENIFYCPIAIMSALAMVYLGAKDSTRTQINKVVRFDKLPGFGDSIEAQCGTSVNVHSSLRDILNQITKPNDVYSFSLASRLYAEERYPILPEYLQCVKELYRGGLEPINFQTAADQARELINSWVESQTNGIIRNVLQPSSVDSQTAMVLVNAIVFKGLWEKAFKDEDTQAMPFRVTEQESKPVQMMYQIGLFRVASMASEKMKILELPFASGTMSMLVLLPDEVSGLEQLESIINFEKLTEWTSSNVMEERKIKVYLPRMKMEEKYNLTSVLMAMGITDVFSSSANLSGISSAESLKISQAVHAAHAEINEAGREVVGSAEAGVDAASVSEEFRADHPFLFCIKHIATNAVLFFGRCVSP
modifications: carboxymethyl-lysine modified
notes: carboxymethyl-lysine-modified ovalbumin, a synthetic AGE

effect on binding of CML-BSA and CML-OVA to immobilized RAGE (RAGE): not
B2: native ovalbumin: unmodified ovalbumin control protein (protein, UniProt P01012 2-386, looked up)
Ovalbumin: GSIGAASMEFCFDVFKELKVHHANENIFYCPIAIMSALAMVYLGAKDSTRTQINKVVRFDKLPGFGDSIEAQCGTSVNVHSSLRDILNQITKPNDVYSFSLASRLYAEERYPILPEYLQCVKELYRGGLEPINFQTAADQARELINSWVESQTNGIIRNVLQPSSVDSQTAMVLVNAIVFKGLWEKAFKDEDTQAMPFRVTEQESKPVQMMYQIGLFRVASMASEKMKILELPFASGTMSMLVLLPDEVSGLEQLESIINFEKLTEWTSSNVMEERKIKVYLPRMKMEEKYNLTSVLMAMGITDVFSSSANLSGISSAESLKISQAVHAAHAEINEAGREVVGSAEAGVDAASVSEEFRADHPFLFCIKHIATNAVLFFGRCVSP
